# Source: PubChem BioAssay (NCI)
#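 Method: 48-hour compound exposure of cells in 96-well plates, five concentrations, linear interpolation of endpoints. Definition used: TGI = concentration required for complete inhibition of growth.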 Where a SMILES comes first, the peptide text is derived from it.
# Assays:
# Experiment in all cases: NCI tumour cell line growth inhibition, 48 h
# 786-0 renal = test system: 786-0 renal
# ACHN renal = test system: ACHN renal
# CAKI-1 renal = test system: CAKI-1 renal
# COLO 205 colon = test system: COLO 205 colon
# EKVX NSCLC = test system: EKVX NSCLC
# HCC-2998 colon = test system: HCC-2998 colon
# HCT-116 colon = test system: HCT-116 colon
# HT29 colon = test system: HT29 colon
# LOX IMVI melanoma = test system: LOX IMVI melanoma
# MDA-MB-435 = test system: MDA-MB-435
# NCI-H226 lung = test system: NCI-H226 lung
# OVCAR-3 ovarian = test system: OVCAR-3 ovarian
# RXF 393 renal = test system: RXF 393 renal
# SF-268 CNS = test system: SF-268 CNS
# SF-295 CNS = test system: SF-295 CNS
# SK-MEL-28 melanoma = test system: SK-MEL-28 melanoma
# SNB-75 CNS = test system: SNB-75 CNS
# SR leukemia = test system: SR leukemia
# T-47D breast = test system: T-47D breast
# UO-31 renal = test system: UO-31 renal
Structure (SMILES),TGI (786-0 renal) [µM],TGI (ACHN renal) [µM],TGI (CAKI-1 renal) [µM],TGI (COLO 205 colon) [µM],TGI (EKVX NSCLC) [µM],TGI (HCC-2998 colon) [µM],TGI (HCT-116 colon) [µM],TGI (HT29 colon) [µM],TGI (LOX IMVI melanoma) [µM],TGI (MDA-MB-435) [µM],TGI (NCI-H226 lung) [µM],TGI (OVCAR-3 ovarian) [µM],TGI (RXF 393 renal) [µM],TGI (SF-268 CNS) [µM],TGI (SF-295 CNS) [µM],TGI (SK-MEL-28 melanoma) [µM],TGI (SNB-75 CNS) [µM],TGI (SR leukemia) [µM],TGI (T-47D breast) [µM],TGI (UO-31 renal) [µM]
COC(=O)c1c[nH]c2c1-c1cc(C(=O)OCc3ccccc3)n(S(=O)(=O)c3ccc(C)cc3)c1C(=O)C2=O,1.02,0.761,2.65,2.08,0.291,1.9,0.607,0.418,0.375,0.135,0.889,0.155,1.14,2.27,0.312,0.244,0.389,3.51,2.47,1.38
CC(=O)c1cccc(NC(=O)C(=O)C(c2cnc3ccc([N+](=O)[O-])cc3n2)[N+](=O)[O-])c1 (stereo not given),> 100,> 100,> 100,> 100,> 100,> 100,> 100,> 100,> 100,> 100,> 100,> 100,> 100,> 100,> 100,> 100,> 100,> 100,> 100,> 100
O=C(CCCl)NNC1=NCCCCN1,> 100,> 100,–,> 100,> 100,> 100,> 100,> 100,> 100,> 100,> 100,> 100,> 100,> 100,> 100,> 100,> 100,> 100,> 100,> 100
CCOC(=O)/C=C/[C@H](O)[C@@H](O)/C=C/C(=O)OCC,> 100,60,45.8,> 100,58.8,> 100,43,36.9,74.2,> 100,> 100,64.7,79.4,> 100,> 100,44.3,> 100,40,> 100,> 100
Nc1c(N2CCOCC2)c(=O)nc2[nH]/c(=C\c3ccccc3)c(=O)n12,> 100,> 100,> 100,> 100,> 100,> 100,> 100,> 100,> 100,> 100,> 100,–,> 100,> 100,> 100,> 100,> 100,> 100,> 100,> 100
CC1(C)C2CC3C4CC5(Nc6ccccc6C5N41)[C@]3(C)CC2=O (stereo not given in full),> 50,> 50,> 50,> 50,> 50,> 50,> 50,> 50,> 50,> 50,> 50,> 50,> 50,> 50,> 50,> 50,> 50,> 50,33.3,> 50
CC(C)CC(NC(=O)C(Cc1ccccc1)NC(=O)C(Cc1c[nH]c2ccccc12)NC(=O)CNC(=O)C(N)Cc1ccc(O)cc1)C(=O)O (stereo not given) (H-YGWFL-OH; configuration not given here),49.4,> 100,> 100,32.9,73.6,60.2,70.6,> 100,–,> 100,> 100,57,> 100,> 100,88.6,> 100,93.9,> 100,72.9,> 100
O=C1N[C@@H]2c3c(Br)sc(Br)c3C(=O)[C@@H]2O1,19.8,3.48,2.37,6.58,4.44,10.8,2.78,3.59,3.54,6.33,28.8,3.38,4.95,28.7,32.5,6.64,16.7,4.03,27,24.8
O=C(NC(Nc1ccc(F)cc1)(C(F)(F)F)C(F)(F)F)C(C(F)(F)F)C(F)(F)F,> 100,> 100,> 100,> 100,> 100,> 100,> 100,> 100,> 100,> 100,> 100,> 100,> 100,> 100,> 100,> 100,> 100,> 95.8,> 100,> 62.5
C=CC(Br)(CBr)CCC(Br)C(C)(C)Cl (stereo not given),5.64,6.07,–,4.36,26.8,12.8,3.4,2.9,–,5.82,52.9,5.25,8.86,4.51,3.6,6,8.72,3.78,3.95,3.97
O=C(O)CN1CCN(CC(=O)N2CCN(C(=O)OCc3ccccc3)CC2)CCN(CC(=O)O)CCN(CC(=O)N2CCN(C(=O)OCc3ccccc3)CC2)CC1,> 100,> 100,> 100,> 100,> 100,> 100,> 100,> 100,> 100,> 100,> 100,> 100,–,–,> 100,> 100,> 100,> 100,> 100,> 100
COc1ccc(N=Nc2c(C)c(C#N)c(=S)n(C3OC(CO)C(O)C(O)C3O)c2C)cc1 (stereo not given),> 100,> 100,> 100,> 100,–,–,> 100,> 100,> 100,> 100,–,> 100,> 100,> 100,> 100,> 100,> 100,87.1,79.8,> 100
O=C(O)C1(Cc2ccc3c(c2)CCC3)Cc2ccccc2C1,> 100,> 100,–,> 100,> 100,> 100,> 100,> 100,> 100,> 100,> 100,> 100,> 100,> 100,> 100,> 100,> 100,> 100,> 100,> 100
Cc1ccc(N2CCN(CCC(=O)O)CC2)cc1,> 100,> 100,> 100,> 100,> 100,–,> 100,> 100,> 100,> 100,> 100,> 100,> 100,> 100,> 100,> 100,> 100,> 100,> 100,> 100
Clc1ccc(-c2ccc(-c3nnc(COc4ccc(OCc5nnc(-c6ccc(-c7ccc(Cl)cc7Cl)o6)o5)c(Cl)c4)o3)o2)c(Cl)c1,> 100,> 100,> 100,> 100,> 100,> 100,> 100,> 100,> 100,> 100,> 100,> 100,73.2,> 100,> 100,> 100,–,74.8,> 100,> 100
SCc1ccc(CS)s1,> 100,–,–,> 100,> 100,> 100,> 100,> 100,> 100,> 100,–,> 100,–,> 100,> 100,> 100,> 100,> 100,> 100,> 100
CCCCCCCCCCCCOc1ccc(/C=C/C2=[N+](CCCl)CCO2)cc1,42.7,> 100,> 100,> 100,> 100,> 100,33.5,> 100,39.9,> 100,> 100,37.9,–,–,> 100,> 100,> 100,50.9,> 100,> 100
CCOC(=O)c1nc2ccccc2nc1Oc1cc(OC)c(OC)c(OC)c1,> 100,> 100,> 100,> 100,> 100,> 100,> 100,> 100,> 100,> 100,–,> 100,–,> 100,> 100,> 100,> 100,> 100,> 100,> 100
COC(=O)[C@@H](Cc1ccccc1)N1O[C@]12CCCC[C@@H]2NC(=O)OC(C)(C)C (stereo not given in full),51.3,32.5,90.4,75.5,82.3,> 100,> 100,32.2,–,54.5,> 100,57.1,56.1,34.9,> 100,60.7,77.3,74.4,62.4,27.5
COc1cc(S(=O)(=O)Nc2ccc(-c3csc(N4C(=O)C(Cl)C4c4ccccc4)n3)cc2)ccc1Cl (stereo not given),49,> 100,> 100,> 100,94.4,–,> 100,> 100,–,> 100,–,> 100,23.1,> 100,> 100,> 100,49.1,> 100,77.1,63.1
CN(C)c1ccc(-c2ccc(N(C)C)c3n[se]nc23)c2n[se]nc12,> 100,> 100,> 100,–,> 100,> 100,> 100,> 100,> 100,> 100,> 100,> 100,> 100,> 100,> 100,> 100,> 100,> 100,> 100,> 100
CN(C)C=NCCN1CCOCC1,> 100,> 100,–,> 100,> 100,–,> 100,> 100,> 100,> 100,> 100,> 100,> 100,> 100,> 100,> 100,> 100,> 100,> 100,> 100
COc1cc([C@@]23OC[C@@H]4[C@@H](OC[C@@H]42)c2cc4c(cc23)OCO4)cc(OC)c1OC,> 100,> 100,> 100,–,–,0.0241,> 100,> 100,–,> 100,–,–,> 100,> 100,> 100,> 100,> 100,> 77,> 100,> 100
O=c1c2cc(Cl)ccc2[nH]c2cc(O)cc(O)c12,> 10,> 10,> 10,> 10,> 10,> 10,> 10,> 10,–,> 10,> 10,> 10,> 10,> 10,> 10,> 10,> 10,> 10,> 10,–
